The numbers were not newly measured in US20060159736A1, “Liposome formulations of boronic acid compounds” (priority 2004, published 2006), which cites them from elsewhere.

The subject of data set [1] is tumor lines. The conditions noted are these: range of tumor lines.
The test system of data set [2] is human prostate cancer xenograft. As to conditions: human prostate xenograft models. On the technique in general: In xenograft studies the graft and the host belong to different species.
Data set [3] has as its system lung cancer xenograft. As to conditions: lung cancer xenograft models.
The conditions of data set [4]: given intravenously once or twice weekly; patients with solid tumors.
For data set [5] the following is noted: intravenous bolus on days 1, 4, 8, and 11 of a 3-week cycle.
Data set [6] has as its system cancer tissues (breast, ovarian, prostate, lung) and tumors (pancreatic tumors, lymphomas, melanoma).

Read-outs that look alike come from different tables or passages of the source.

Consider `CC(C)C[C@H](NC(=O)[C@H](Cc1ccccc1)NC(=O)c1cnccn1)B(O)O` [bortezomib], for which the cytotoxicity result in data set [1] is “showed cytotoxicity against a range of tumor lines”. In addition, the antitumor activity entry in data set [2] and in data set [3] was “had antitumor activity” in each case. In addition, the maximum tolerated dose in data set [4] was 1.3 mg/m^2; in data set [5] it was 1.56 mg/m^2. The “activity against cancer tissues and tumors” value in data set [6] is recorded as “activity against a variety of cancer tissues”.
